# In patent publication US11040981B2, “Pyrrolotriazine compounds and methods of inhibiting TAM kinases” (Syros Pharmaceuticals, Inc., priority 2017, dated 2021):
# Assays:
# MERTK = biological target: T1, MERTK (Homo sapiens, UniProt Q12866); test: TR-FRET kinase activity assay, MERTK; format: biochemical; conditions: for IC50: TR-FRET activity assay, ATP at Km, 60 minutes, read-out: Mer IC50
# T1 sequence (Q12866 21-999): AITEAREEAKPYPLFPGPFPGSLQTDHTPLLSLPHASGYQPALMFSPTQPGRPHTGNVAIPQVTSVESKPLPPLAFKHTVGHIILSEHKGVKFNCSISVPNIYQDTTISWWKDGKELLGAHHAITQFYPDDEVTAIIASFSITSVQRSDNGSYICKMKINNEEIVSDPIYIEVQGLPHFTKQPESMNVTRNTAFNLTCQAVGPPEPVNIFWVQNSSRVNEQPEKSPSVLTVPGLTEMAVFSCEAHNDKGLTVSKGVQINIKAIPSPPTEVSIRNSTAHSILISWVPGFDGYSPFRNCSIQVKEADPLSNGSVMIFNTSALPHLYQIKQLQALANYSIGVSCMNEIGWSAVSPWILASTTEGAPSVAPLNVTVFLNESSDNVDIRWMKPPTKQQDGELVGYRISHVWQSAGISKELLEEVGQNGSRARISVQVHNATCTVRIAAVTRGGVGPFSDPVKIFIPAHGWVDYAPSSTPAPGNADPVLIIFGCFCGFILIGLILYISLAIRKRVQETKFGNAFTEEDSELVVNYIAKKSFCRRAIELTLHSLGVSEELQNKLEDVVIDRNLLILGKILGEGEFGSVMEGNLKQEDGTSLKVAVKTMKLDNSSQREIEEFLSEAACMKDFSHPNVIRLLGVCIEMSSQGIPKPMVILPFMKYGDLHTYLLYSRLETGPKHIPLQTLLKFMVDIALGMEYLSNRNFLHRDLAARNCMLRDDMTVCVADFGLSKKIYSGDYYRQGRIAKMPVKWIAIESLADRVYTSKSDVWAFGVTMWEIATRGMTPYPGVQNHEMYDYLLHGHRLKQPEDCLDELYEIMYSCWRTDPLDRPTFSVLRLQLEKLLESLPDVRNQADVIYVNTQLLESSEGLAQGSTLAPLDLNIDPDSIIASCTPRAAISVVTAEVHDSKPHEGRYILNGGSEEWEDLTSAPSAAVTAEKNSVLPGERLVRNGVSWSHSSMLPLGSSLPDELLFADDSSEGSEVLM
# Outline: (§1)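 Recombinant human kinases, fluorescent peptide substrate, ATP at Km; 1 h RT, pH 7.5. EDTA-quenched, Eu antibody added, TR-FRET read; IC50 determined.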
# TYRO3 = biological target: T2, TYRO3 (Homo sapiens, UniProt Q06418); test: TR-FRET kinase activity assay, TYRO3; format: biochemical; conditions: ATP at Km, 60 minutes
# T2 sequence (Q06418 41-890): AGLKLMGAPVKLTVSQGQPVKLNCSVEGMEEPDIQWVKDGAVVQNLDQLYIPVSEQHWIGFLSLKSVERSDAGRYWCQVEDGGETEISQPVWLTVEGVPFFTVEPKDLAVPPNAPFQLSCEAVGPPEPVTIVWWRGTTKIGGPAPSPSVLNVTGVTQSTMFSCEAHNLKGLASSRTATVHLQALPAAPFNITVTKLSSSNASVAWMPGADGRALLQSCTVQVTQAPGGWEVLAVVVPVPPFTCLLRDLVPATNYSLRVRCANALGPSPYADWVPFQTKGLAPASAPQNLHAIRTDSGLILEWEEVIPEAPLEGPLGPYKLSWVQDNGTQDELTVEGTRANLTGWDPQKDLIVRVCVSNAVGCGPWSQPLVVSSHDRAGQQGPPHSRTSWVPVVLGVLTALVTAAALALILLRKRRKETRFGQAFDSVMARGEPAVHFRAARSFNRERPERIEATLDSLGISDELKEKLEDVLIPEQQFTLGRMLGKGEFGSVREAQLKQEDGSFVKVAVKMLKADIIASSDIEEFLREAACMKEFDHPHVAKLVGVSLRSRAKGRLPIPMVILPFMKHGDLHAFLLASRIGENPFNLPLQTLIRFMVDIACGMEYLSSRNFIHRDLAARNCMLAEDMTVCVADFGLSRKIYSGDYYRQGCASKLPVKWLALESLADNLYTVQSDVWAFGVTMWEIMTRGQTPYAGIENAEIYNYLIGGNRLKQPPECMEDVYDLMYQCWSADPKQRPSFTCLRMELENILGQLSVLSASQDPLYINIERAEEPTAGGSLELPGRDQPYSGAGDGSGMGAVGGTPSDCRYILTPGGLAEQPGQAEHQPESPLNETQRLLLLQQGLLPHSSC
# Outline: as §1
# [1] = ratio of Mer to FLT3: FLT3 IC50/Mer IC50
# [2] = ratio calculated as FLT3 IC50/Mer IC50
Structure (SMILES),IC50 (MERTK),FLT3/Mer ratio (FLT3 IC50/Mer IC50) (MERTK; [1]),IC50 (TYRO3),FLT3/Mer ratio (FLT3 IC50/Mer IC50) (MERTK; [2])
COC[C@H](C)Nc1ncc2c(-c3ccnc(C)c3)cc([C@H]3CC[C@@](C)(O)CC3)n2n1 [Compound 381],≤ 100 nM,+++ (“+++” represents a ratio of >100),≤ 100 nM,
COC[C@H](C)Nc1ncc2c([C@@H]3CCCN(C(C)=O)C3)cc([C@H]3CC[C@H](O)CC3)n2n1 [Compound 372],100 to 1000 nM,++ (“++” represents a ratio of between 10 and 100),1000 to 10000 nM,
COC[C@H](C)Nc1ncc2c(-c3ccnc(O[C@H]4CCNC4)c3)cc([C@H]3CC[C@H](O)CC3)n2n1 [Compound 386],≤ 100 nM,+++ (“+++” represents a ratio of >100),≤ 100 nM,
COC[C@H](C)Nc1ncc2c(-c3cnn(C4(C(=O)N5CCOCC5)CC4)c3)cc([C@H]3CC[C@H](O)CC3)n2n1 [Compound 414],≤ 100 nM,,≤ 100 nM,+++ (“+++” represents a ratio of >100)
CNC(=O)c1ncc(-c2cc([C@H]3CC[C@H](O)CC3)n3nc(N[C@@H](C)CC(F)(F)F)ncc23)cn1 [Compound 347],≤ 100 nM,+++ (“+++” represents a ratio of >100),≤ 100 nM,
COC[C@H](C)Nc1ncc2c(-c3cnn([C@@H]4CO[C@H]5OCC[C@H]54)c3)cc([C@H]3CC[C@H](O)CC3)n2n1 [Compound 422],≤ 100 nM,,≤ 100 nM,+++ (“+++” represents a ratio of >100)
CC(=O)N1CCN(Cc2ccc(-c3cc([C@H]4CC[C@H](O)CC4)n4nc(N[C@@H](C)COC(F)F)ncc34)cc2)CC1 [Compound 413],≤ 100 nM,,≤ 100 nM,++ (“++” represents a ratio of between 10 and 100)
COCC(C)Nc1ncc2c(C3CCN(c4ccnc(C)n4)C3)cc(C3CCC(O)CC3)n2n1 (stereo not drawn) [Compound 373],≤ 100 nM,+++ (“+++” represents a ratio of >100),≤ 100 nM,
COC[C@H](C)Nc1ncc2c(-c3ccnc(C)c3)cc([C@H]3CC[C@](C)(O)CC3)n2n1 [Compound 391],≤ 100 nM,+++ (“+++” represents a ratio of >100),≤ 100 nM,
CC(C)Nc1ncc2c(-c3ccnc(N4CCOCC4)c3)cc([C@H]3CC[C@H](O)CC3)n2n1 [Compound 350],≤ 100 nM,+++ (“+++” represents a ratio of >100),≤ 100 nM,
O[C@H]1CC[C@H](c2cc(-c3ccnc(N4CCOCC4)c3)c3cnc(NCCC(F)(F)F)nn32)CC1 [Compound 363],≤ 100 nM,+ (“+” represents a ratio of >2.0 and <10),≤ 100 nM,
COC[C@H](C)Nc1ncc2c(-c3cnn(CCC#N)c3)cc([C@H]3CC[C@](C)(O)CC3)n2n1 [Compound 382],≤ 100 nM,+++ (“+++” represents a ratio of >100),≤ 100 nM,
COC[C@H](C)Nc1ncc2c(-c3ccnc(N4CCOCC4)c3)cc([C@H]3CC[C@H](O)CC3)n2n1 [Compound 355],≤ 100 nM,+ (“+” represents a ratio of >2.0 and <10),≤ 100 nM,
COCC(C)Nc1ncc2c(-c3cnn(C(C)(C)C(=O)N4CCOC(C)(C)C4)c3)cc(C3CCC(O)CC3)n2n1 (stereo not drawn) [Compound 366],≤ 100 nM,+++ (“+++” represents a ratio of >100),≤ 100 nM,
COC[C@H](C)Nc1ncc2c(-c3ccnc(O[C@@H]4CCNC4)c3)cc([C@H]3CC[C@H](O)CC3)n2n1 [Compound 401],≤ 100 nM,,≤ 100 nM,+++ (“+++” represents a ratio of >100)
COC[C@H](C)Nc1ncc2c(-c3ccnc(N4CCS(=O)(=O)CC4)c3)cc([C@H]3CC[C@H](O)CC3)n2n1 [Compound 357],≤ 100 nM,+++ (“+++” represents a ratio of >100),≤ 100 nM,
COC[C@H](C)Nc1ncc2c([C@H]3CCCN(c4ccnc(C)n4)C3)cc([C@H]3CC[C@H](O)CC3)n2n1 [Compound 377],≤ 100 nM,+++ (“+++” represents a ratio of >100),≤ 100 nM,
COC[C@H](C)Nc1ncc2c(-c3cnn(C4COC4)c3)cc(C3CCC(=O)CC3)n2n1 [Compound 406],≤ 100 nM,,≤ 100 nM,+++ (“+++” represents a ratio of >100)
CNC(=O)c1ncc(-c2cc([C@H]3CC[C@H](O)CC3)n3nc(N[C@@H](C)COC(F)F)ncc23)cn1 [Compound 407],≤ 100 nM,,≤ 100 nM,+++ (“+++” represents a ratio of >100)
OC1CCC(c2cc(-c3ccnc(N4CCOCC4)c3)c3cnc(NCCC4CC4)nn23)CC1 (stereo not drawn) [Compound 359],≤ 100 nM,+ (“+” represents a ratio of >2.0 and <10),≤ 100 nM,
COC[C@H](C)Nc1ncc2c(-c3ccnc(NC4CCOC4)c3)cc([C@H]3CC[C@H](O)CC3)n2n1 (stereo partly drawn) [Compound 418],≤ 100 nM,,≤ 100 nM,+++ (“+++” represents a ratio of >100)
COC[C@H](C)Nc1ncc2c(-c3ccnc(OC4COC4)c3)cc([C@H]3CC[C@H](O)CC3)n2n1 [Compound 358],≤ 100 nM,+++ (“+++” represents a ratio of >100),≤ 100 nM,
C[C@@H](COC(F)F)Nc1ncc2c(-c3ccnc(N4CCOCC4)c3)cc([C@H]3CC[C@H](O)CC3)n2n1 [Compound 405],≤ 100 nM,,≤ 100 nM,+++ (“+++” represents a ratio of >100)
CNC(=O)c1cc(-c2cc([C@H]3CC[C@H](O)CC3)n3nc(N[C@@H](C)CC(F)(F)F)ncc23)ccn1 [Compound 384],≤ 100 nM,+++ (“+++” represents a ratio of >100),≤ 100 nM,
